This is an account of results in ChEMBL document CHEMBL3880410, “Novel oxabispidine compounds and their use in the treatment of cardiac arrhythmias” (2009).

Each structure is given as a SMILES string.

In the test the test system is Cavia porcellus. Kind of test: Anti-cardiac arrhythmia activity in anaesthetised guinea pig assessed as cumulative dose inducing prolongation of monophasic action potential duration by 10% from baseline administered as first dose infusion in 0.2 mL/kg into jugular vein catheter for 30 secs followed by next dosing after 5 mins for 6 to 10 consecutive times by electrophysiology based assay. In kind it is functional.
For `N#Cc1ccc(OCCN2CC3CN(CCNS(=O)(=O)c4ccc(F)cc4)CC(C2)O3)c(F)c1`, the D10 is >5.5 mg/kg.
The figure for `N#Cc1ccc(S(=O)(=O)NCCCN2CC3CN(CCc4ccc(F)c(F)c4)CC(C2)O3)cc1` is >5.5 mg/kg.
`N#Cc1ccc(OCCCN2CC3CN(CCNS(=O)(=O)C(F)(F)F)CC(C2)O3)cc1`: the D10 was >5.5 mg/kg.
Turning to `O=S(=O)(NCCN1CC2CN(CCc3cccc(F)c3)CC(C1)O2)c1ccc(F)cc1`, the D10 was >5.5 mg/kg.
Take `N#Cc1ccc(OCCN2CC3CN(CCCNS(=O)(=O)c4ccccc4)CC(C2)O3)cc1`: the D10 is >5.5 mg/kg.
As for `N#Cc1ccc(CN2CC3CN(CCNS(=O)(=O)c4cccc(C#N)c4)CC(C2)O3)cc1`, the D10 is >5.5 mg/kg.
Take `Cc1noc(C)c1CN1CC2CN(CCS(=O)(=O)N(Cc3ccc(C#N)cc3)Cc3c(C)noc3C)CC(C1)O2`: the D10 was >5.5 mg/kg.
Consider `N#Cc1ccc(S(=O)(=O)NCCN2CC3CN(CCOc4ccc(C#N)cc4F)CC(C2)O3)cc1`, for which the D10 was >5.5 mg/kg.
For the compound `N#Cc1ccc(S(=O)(=O)NCCN2CC3CN(CCCOc4cc(F)ccc4F)CC(C2)O3)cc1`, the D10 is >5.5 mg/kg.
The figure for `CN(CCN1CC2CN(CCc3ccc(F)cc3)CC(C1)O2)S(=O)(=O)c1ccc(C#N)cc1` is >5.5 mg/kg; for `N#Cc1ccc(OCCN2CC3CN(CCNS(=O)(=O)c4cccc(C#N)c4)CC(C2)O3)cc1` it is >5.5 mg/kg; for `Cc1noc(C)c1S(=O)(=O)NCCN1CC2CN(CCOc3ccc(C#N)cc3F)CC(C1)O2` it is >5.5 mg/kg.
For the compound `N#Cc1ccc(OCCN2CC3CN(CCNS(=O)(=O)c4ccc(F)cc4)CC(C2)O3)cc1`, the D10 is >5.5 mg/kg.
With `N#Cc1ccc(S(=O)(=O)NCCN2CC3CN(CCCOc4cccc(F)c4)CC(C2)O3)cc1`, the D10 is >5.5 mg/kg.
The figure for `N#Cc1ccc(S(=O)(=O)NCCCN2CC3CN(CCOc4ccc(C#N)cc4F)CC(C2)O3)cc1` is >5.5 mg/kg; for `N#Cc1ccc(CNS(=O)(=O)CCN2CC3CN(Cc4ccccc4C#N)CC(C2)O3)cc1` it is >5.5 mg/kg.
In the case of `CN(CCN1CC2CN(CCc3ccccc3F)CC(C1)O2)S(=O)(=O)c1ccc(C#N)cc1`, the D10 was >5.5 mg/kg.
The figure for `Cc1nn(C)c(Cl)c1S(=O)(=O)NCCN1CC2CN(CCOc3ccc(C#N)cc3)CC(C1)O2` is >5.5 mg/kg; for `N#Cc1ccc(OCCN2CC3CN(CCCNS(=O)(=O)c4ccc(F)cc4F)CC(C2)O3)c(F)c1` it is >5.5 mg/kg.
In the case of `N#Cc1ccc(S(=O)(=O)NCCCN2CC3CN(CCc4ccc(F)cc4)CC(C2)O3)cc1` it was >5.5 mg/kg.
As to `N#Cc1ccc(OCCCN2CC3CN(CCNS(=O)(=O)c4cccc(F)c4)CC(C2)O3)cc1`, the D10 was >5.5 mg/kg.
Regarding `N#Cc1ccc(S(=O)(=O)NCCN2CC3CN(CCc4cccc(F)c4)CC(C2)O3)cc1`, the D10 is >5.5 mg/kg.
As for `Cn1cnc(S(=O)(=O)NCCN2CC3CN(CCCOc4ccc(C#N)cc4)CC(C2)O3)c1`, the D10 is >5.5 mg/kg.
For `N#Cc1ccc(OCCN2CC3CN(CCNS(=O)(=O)c4cccc(F)c4)CC(C2)O3)cc1`, the D10 is >5.5 mg/kg.
As for `CC(C)S(=O)(=O)NCCN1CC2CN(CCCOc3ccc(C#N)cc3)CC(C1)O2`, the D10 was >5.5 mg/kg.
For `N#Cc1ccc(S(=O)(=O)NCCCN2CC3CN(Cc4ccc(F)cc4)CC(C2)O3)cc1`, the D10 was >5.5 mg/kg.
In the case of `N#Cc1ccc(S(=O)(=O)NCCN2CC3CN(CCc4ccc(F)cc4)CC(C2)O3)cc1`, the D10 is >5.5 mg/kg.
In the case of `N#Cc1ccc(OCCN2CC3CN(CCNS(=O)(=O)c4cccc(F)c4)CC(C2)O3)c(F)c1`, the D10 was >5.5 mg/kg.
On to `N#Cc1ccc(OCCN2CC3CN(CCNS(=O)(=O)c4ccccc4)CC(C2)O3)cc1`, for which the D10 is >5.5 mg/kg.
Consider `N#Cc1ccc(OCCCN2CC3CN(CCNS(=O)(=O)c4ccc(C#N)cc4)CC(C2)O3)cc1`, for which the D10 is >5.5 mg/kg.
